{"source": "the supplement of paper PMC10627819", "test_in_all_cases": "Bliss interaction score (quartile over a dose matrix) (fitness difference); higher = more antagonism (negative = synergy)", "key": {"S. aureus Newman": {"test_system": "S. aureus Newman", "in_short": "(§1)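 The Bliss score was calculated by subtracting the expected fitness, the product of single-drug values, from the observed fitness. OD595 at entry into stationary phase, over the plate's robust no-drug mean and capped at 1, served as the fitness readout. Single-drug values were inferred from combination data, and scores are summarised by quartiles across technical, biological and donor/recipient replicates.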"}, "S. aureus DSM 20231": {"test_system": "S. aureus DSM 20231", "in_short": "as §1"}, "B. subtilis 168": {"test_system": "B. subtilis 168", "in_short": "as §1"}, "S. pneumoniae D39V": {"test_system": "S. pneumoniae D39V", "in_short": "as §1"}}}
{"smiles": "CN[C@H](CC(C)C)C(=O)N[C@H]1C(=O)N[C@@H](CC(N)=O)C(=O)N[C@H]2C(=O)N[C@H]3C(=O)N[C@H](C(=O)N[C@H](C(=O)O)c4cc(O)cc(O)c4-c4cc3ccc4O)[C@H](O[C@H]3C[C@](C)(N)[C@@H](O)[C@H](C)O3)c3ccc(c(Cl)c3)Oc3cc2cc(c3O[C@@H]2O[C@H](CO)[C@@H](O)[C@H](O)[C@H]2O[C@H]2C[C@](C)(NCc3ccc(-c4ccc(Cl)cc4)cc3)[C@@H](O)[C@H](C)O2)Oc2ccc(cc2Cl)[C@H]1O", "note": "[Oritavancin] + CN(N=O)C(=O)N[C@@H](C=O)[C@@H](O)[C@H](O)[C@H](O)CO [Streptozotocin]", "values": [{"measurement": "Bliss interaction score", "setting": "S. aureus Newman", "result": -0.063}, {"measurement": "Bliss interaction score", "setting": "S. aureus DSM 20231", "result": -0.0564}, {"measurement": "Bliss interaction score", "setting": "B. subtilis 168", "result": -0.0355}, {"measurement": "Bliss interaction score", "setting": "S. pneumoniae D39V", "result": -0.0337}]}
{"smiles": "CC[C@H]1OC(=O)[C@H](C)[C@@H](O[C@H]2C[C@@](C)(OC)[C@@H](O)[C@H](C)O2)[C@H](C)[C@@H](O[C@@H]2O[C@H](C)C[C@H](N(C)C)[C@H]2O)[C@](C)(O)C[C@@H](C)C(=O)[C@H](C)[C@@H](O)[C@]1(C)O", "note": "[Erythromycin] + CN[C@H](CC(C)C)C(=O)N[C@H]1C(=O)N[C@@H](CC(N)=O)C(=O)N[C@H]2C(=O)N[C@H]3C(=O)N[C@H](C(=O)N[C@H](C(=O)O)c4cc(O)cc(O)c4-c4cc3ccc4O)[C@H](O)c3ccc(c(Cl)c3)Oc3cc2cc(c3O[C@@H]2O[C@H](CO)[C@@H](O)[C@H](O)[C@H]2O[C@H]2C[C@](C)(N)[C@H](O)[C@H](C)O2)Oc2ccc(cc2Cl)[C@H]1O [Vancomycin]", "values": [{"measurement": "Bliss interaction score", "setting": "S. aureus Newman", "result": -0.0375}, {"measurement": "Bliss interaction score", "setting": "S. aureus DSM 20231", "result": 0.0298}, {"measurement": "Bliss interaction score", "setting": "B. subtilis 168", "result": 0.035}, {"measurement": "Bliss interaction score", "setting": "S. pneumoniae D39V", "result": 0.0403}]}
{"smiles": "CC[C@H](C)[C@H](N)C1=N[C@H](C(=O)N[C@@H](CC(C)C)C(=O)N[C@H](CCC(=O)O)C(=O)N[C@H](C(=O)N[C@H]2CCCCNC(=O)[C@H](CC(N)=O)NC(=O)[C@@H](CC(=O)O)NC(=O)[C@H](Cc3cnc[nH]3)NC(=O)[C@@H](Cc3ccccc3)NC(=O)[C@H]([C@@H](C)CC)NC(=O)[C@@H](CCCN)NC2=O)[C@@H](C)CC)CS1", "note": "[Bacitracin] + N[C@@H]1CONC1=O [CycloserineD]", "values": [{"measurement": "Bliss interaction score", "setting": "S. aureus Newman; main component drawn", "result": 0.0872}, {"measurement": "Bliss interaction score", "setting": "S. aureus DSM 20231; main component drawn", "result": -0.0841}, {"measurement": "Bliss interaction score", "setting": "B. subtilis 168; main component drawn", "result": 0.0719}, {"measurement": "Bliss interaction score", "setting": "S. pneumoniae D39V; main component drawn", "result": 0.118}]}
{"smiles": "CO[C@@]12[C@H](COC(N)=O)C3=C(C(=O)C(C)=C(N)C3=O)N1C[C@@H]1N[C@@H]12", "note": "[MitomycinC] + CN[C@@H]1[C@H](O[C@H]2[C@H](O[C@H]3[C@H](O)[C@@H](O)[C@H](N=C(N)N)[C@@H](O)[C@@H]3N=C(N)N)O[C@@H](C)[C@]2(O)C=O)O[C@@H](CO)[C@H](O)[C@H]1O [Streptomycin]", "values": [{"measurement": "Bliss interaction score", "setting": "S. aureus Newman", "result": -0.078}, {"measurement": "Bliss interaction score", "setting": "S. aureus DSM 20231", "result": -0.117}, {"measurement": "Bliss interaction score", "setting": "B. subtilis 168", "result": -0.21}, {"measurement": "Bliss interaction score", "setting": "S. pneumoniae D39V", "result": -0.072}]}
{"smiles": "CC[C@H]1OC(=O)[C@H](C)[C@@H](O[C@H]2C[C@@](C)(OC)[C@@H](O)[C@H](C)O2)[C@H](C)[C@@H](O[C@@H]2O[C@H](C)C[C@H](N(C)C)[C@H]2O)[C@](C)(O)C[C@@H](C)C(=O)[C@H](C)[C@@H](O)[C@]1(C)O", "note": "[Erythromycin] + CC(=O)O[C@H]1C[C@@]2(C)[C@@H](C[C@@H](O)[C@H]3[C@@]4(C)CC[C@@H](O)[C@@H](C)[C@@H]4CC[C@@]32C)/C1=C(\\CCC=C(C)C)C(=O)O [Fusidic acid]", "values": [{"measurement": "Bliss interaction score", "setting": "S. aureus Newman", "result": -0.0241}, {"measurement": "Bliss interaction score", "setting": "S. aureus DSM 20231", "result": 0.0374}, {"measurement": "Bliss interaction score", "setting": "B. subtilis 168", "result": -0.057}, {"measurement": "Bliss interaction score", "setting": "S. pneumoniae D39V", "result": -0.1}]}
{"smiles": "CC[C@H]1OC(=O)[C@H](C)[C@@H](O[C@H]2C[C@@](C)(OC)[C@@H](O)[C@H](C)O2)[C@H](C)[C@@H](O[C@@H]2O[C@H](C)C[C@H](N(C)C)[C@H]2O)[C@](C)(O)C[C@@H](C)C(=O)[C@H](C)[C@@H](O)[C@]1(C)O", "note": "[Erythromycin] + CCCCCCCCCC(=O)N[C@@H]1[C@H]([C@@H]([C@H](O[C@H]1OC2=C3C=C4C=C2OC5=C(C=C(C=C5)[C@H]([C@H]6C(=O)N[C@@H](C7=C(C(=CC(=C7)O)OC8[C@H]([C@H]([C@@H]([C@H](O8)CO)O)O)O)C9=C(C=CC(=C9)[C@H](C(=O)N6)NC(=O)[C@@H]4NC(=O)[C@@H]1C2=CC(=CC(=C2)OC2=C(C=CC(=C2)[C@H](C(=O)N[C@H](CC2=CC(=C(O3)C=C2)Cl)C(=O)N1)N)O)O)O)C(=O)O)O[C@H]1[C@@H]([C@H]([C@@H]([C@H](O1)CO)O)O)NC(=O)C)Cl)CO)O)O [Teicoplanin]", "values": [{"measurement": "Bliss interaction score", "setting": "S. aureus Newman; main component drawn", "result": 0.154}, {"measurement": "Bliss interaction score", "setting": "S. aureus DSM 20231; main component drawn", "result": 0.0621}, {"measurement": "Bliss interaction score", "setting": "B. subtilis 168; main component drawn", "result": -0.046}, {"measurement": "Bliss interaction score", "setting": "S. pneumoniae D39V; main component drawn", "result": 0.0581}]}
{"smiles": "CC[C@H]1OC(=O)[C@H](C)[C@@H](O[C@H]2C[C@@](C)(OC)[C@@H](O)[C@H](C)O2)[C@H](C)[C@@H](O[C@@H]2O[C@H](C)C[C@H](N(C)C)[C@H]2O)[C@](C)(O)C[C@@H](C)C(=O)[C@H](C)[C@@H](O)[C@]1(C)O", "note": "[Erythromycin] + C[n+]1ccc(-c2cc[n+](C)cc2)cc1 [Paraquat]", "values": [{"measurement": "Bliss interaction score", "setting": "S. aureus Newman", "result": 0.0479}, {"measurement": "Bliss interaction score", "setting": "S. aureus DSM 20231", "result": 0.0299}, {"measurement": "Bliss interaction score", "setting": "B. subtilis 168", "result": -0.0399}, {"measurement": "Bliss interaction score", "setting": "S. pneumoniae D39V", "result": 0.0496}]}
{"smiles": "CO[C@@H]1[C@@H](OC(N)=O)[C@@H](O)[C@H](Oc2ccc3c(O)c(NC(=O)c4ccc(O)c(CC=C(C)C)c4)c(=O)oc3c2C)OC1(C)C", "note": "[Novobiocin] + C/C(=C\\C(=O)OCCCCCCCCC(=O)O)C[C@@H]1OC[C@H](C[C@@H]2O[C@H]2[C@@H](C)[C@H](C)O)[C@@H](O)[C@H]1O [Pseudomonic acid]", "values": [{"measurement": "Bliss interaction score", "setting": "S. aureus Newman", "result": -0.0166}, {"measurement": "Bliss interaction score", "setting": "S. aureus DSM 20231", "result": -0.0173}, {"measurement": "Bliss interaction score", "setting": "B. subtilis 168", "result": -0.0516}, {"measurement": "Bliss interaction score", "setting": "S. pneumoniae D39V", "result": 0.241}]}
{"smiles": "CO[C@@H]1[C@@H](OC(N)=O)[C@@H](O)[C@H](Oc2ccc3c(O)c(NC(=O)c4ccc(O)c(CC=C(C)C)c4)c(=O)oc3c2C)OC1(C)C", "note": "[Novobiocin] + CN[C@H](CC(C)C)C(=O)N[C@H]1C(=O)N[C@@H](CC(N)=O)C(=O)N[C@H]2C(=O)N[C@H]3C(=O)N[C@H](C(=O)N[C@H](C(=O)O)c4cc(O)cc(O)c4-c4cc3ccc4O)[C@H](O[C@H]3C[C@](C)(N)[C@@H](O)[C@H](C)O3)c3ccc(c(Cl)c3)Oc3cc2cc(c3O[C@@H]2O[C@H](CO)[C@@H](O)[C@H](O)[C@H]2O[C@H]2C[C@](C)(NCc3ccc(-c4ccc(Cl)cc4)cc3)[C@@H](O)[C@H](C)O2)Oc2ccc(cc2Cl)[C@H]1O [Oritavancin]", "values": [{"measurement": "Bliss interaction score", "setting": "S. aureus Newman", "result": -0.0768}, {"measurement": "Bliss interaction score", "setting": "S. aureus DSM 20231", "result": -0.0612}, {"measurement": "Bliss interaction score", "setting": "B. subtilis 168", "result": -0.0421}, {"measurement": "Bliss interaction score", "setting": "S. pneumoniae D39V", "result": 0.0403}]}
